# Several values for one entry are separate records, joined by “and”; a condition that tells them apart may be missing. Identical values can stand only once.
# How the values were obtained:
# CDK12–cyclin K and DDB1 [1] = target: T1, CDK12–cyclin K and DDB1 (Homo sapiens, UniProt Q16531+Q9NYV4, K965R); experiment: TR-FRET ternary complex formation assay (compound titration); assay type: binding; details: for TR-FRET signal at compound concentration: replicate titrations
# T1 construct: His6–CDK12 (a.a. 713–1,052); full-length or beta-propeller B domain deletion (ΔBPB: a.a. 396–705 deleted) constructs of His6–DDB1ΔBPB, StrepII–Avi–DDB1, or His6–Spy–DDB1; made in house; host or cells: Trichoplusia ni High Five insect cells (baculovirus)
# In short: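 TR-FRET ratio 520/490 nm; 70 μs delay before read to suppress background.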
# CDK12–cyclin K and DDB1 [2] = target: T1, CDK12–cyclin K and DDB1; experiment: TR-FRET Kd determination, quadratic fit, 50 nM or 10 nM CDK12–cyclin K; assay type: binding
# Source text: Equation (2) is a quadratic binding equation used for Kd determination,where Top and Bottom refer to the curve plateaus. […]
# [3] = compound concentration 993.601 nM
# [4] = compound concentration 2001.6 nM
# T1 sequence (Q9NYV4 713-1052 K965R): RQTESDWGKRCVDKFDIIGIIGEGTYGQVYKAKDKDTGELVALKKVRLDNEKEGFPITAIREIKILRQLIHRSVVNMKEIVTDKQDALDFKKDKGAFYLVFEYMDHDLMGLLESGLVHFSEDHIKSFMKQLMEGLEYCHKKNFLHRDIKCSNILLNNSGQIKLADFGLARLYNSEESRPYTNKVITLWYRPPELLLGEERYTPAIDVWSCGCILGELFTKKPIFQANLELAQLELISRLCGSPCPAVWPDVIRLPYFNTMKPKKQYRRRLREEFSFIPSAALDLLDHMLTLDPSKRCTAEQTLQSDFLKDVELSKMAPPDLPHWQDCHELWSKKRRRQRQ
# T1 sequence (O75909 1-267 partner): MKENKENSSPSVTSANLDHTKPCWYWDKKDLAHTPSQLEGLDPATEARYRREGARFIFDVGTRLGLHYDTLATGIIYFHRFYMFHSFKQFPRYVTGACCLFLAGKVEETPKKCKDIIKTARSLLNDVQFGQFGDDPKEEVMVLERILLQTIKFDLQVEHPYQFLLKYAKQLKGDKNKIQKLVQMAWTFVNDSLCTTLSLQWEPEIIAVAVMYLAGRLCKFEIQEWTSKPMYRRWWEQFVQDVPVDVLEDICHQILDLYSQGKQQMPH
# T1 sequence (Q16531 whole entry): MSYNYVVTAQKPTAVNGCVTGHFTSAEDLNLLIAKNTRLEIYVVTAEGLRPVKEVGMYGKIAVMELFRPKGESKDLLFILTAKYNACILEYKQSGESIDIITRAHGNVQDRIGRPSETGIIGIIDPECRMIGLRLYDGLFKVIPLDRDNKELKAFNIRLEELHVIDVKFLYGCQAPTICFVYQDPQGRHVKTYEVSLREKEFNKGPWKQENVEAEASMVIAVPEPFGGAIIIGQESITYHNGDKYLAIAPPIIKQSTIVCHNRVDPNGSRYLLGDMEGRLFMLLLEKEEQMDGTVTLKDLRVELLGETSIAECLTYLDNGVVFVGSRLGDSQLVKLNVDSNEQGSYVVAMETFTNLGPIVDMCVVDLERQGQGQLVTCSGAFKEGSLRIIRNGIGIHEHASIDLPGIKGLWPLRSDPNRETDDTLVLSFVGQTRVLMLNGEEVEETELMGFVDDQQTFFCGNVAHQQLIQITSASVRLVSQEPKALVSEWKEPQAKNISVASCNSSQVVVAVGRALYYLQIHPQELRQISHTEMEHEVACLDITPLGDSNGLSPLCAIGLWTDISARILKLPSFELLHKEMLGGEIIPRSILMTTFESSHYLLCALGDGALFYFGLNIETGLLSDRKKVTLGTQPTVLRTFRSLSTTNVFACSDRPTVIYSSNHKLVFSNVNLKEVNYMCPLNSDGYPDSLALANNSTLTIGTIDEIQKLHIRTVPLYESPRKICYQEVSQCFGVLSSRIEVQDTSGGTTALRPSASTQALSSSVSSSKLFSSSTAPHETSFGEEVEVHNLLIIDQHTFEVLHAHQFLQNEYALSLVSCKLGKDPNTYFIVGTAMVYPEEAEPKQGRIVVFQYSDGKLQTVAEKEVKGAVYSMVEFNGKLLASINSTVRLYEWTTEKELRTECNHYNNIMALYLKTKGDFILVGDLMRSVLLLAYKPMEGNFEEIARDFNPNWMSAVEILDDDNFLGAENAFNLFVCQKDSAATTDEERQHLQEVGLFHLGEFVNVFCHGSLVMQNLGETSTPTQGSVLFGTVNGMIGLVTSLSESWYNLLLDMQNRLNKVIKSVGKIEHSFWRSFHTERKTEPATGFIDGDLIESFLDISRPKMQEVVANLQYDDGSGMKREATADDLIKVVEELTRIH
smiles,measurement,setting,value
"CCC(CO)Nc1nc(NCc2ccc(-c3ccccn3)cc2)c2ncn(C(C)C)c2n1 (stereo not drawn) [CR8, reference compound]",TR-FRET signal at compound concentration 244.8 nM,"CDK12–cyclin K and DDB1 [1]; compound concentration 244.8 nM, raw replicate titration data",4.223 and 4.06 and 4.046 and 4.132 and 4.096 and 3.922 and 3.897 and 4.118 and 4.095 and 3.806 and 3.805 and 3.852 and 3.955 and 3.967 and 4.129 and 4.013 and 4.0726 and 3.918
same,TR-FRET signal at compound concentration 244.8 nM,"CDK12–cyclin K and DDB1 [1]; compound concentration 244.8 nM, raw titration data",4.223 and 4.06 and 4.046 and 4.132 and 4.096 and 3.922 and 3.897 and 4.118 and 4.095 and 3.806 and 3.805 and 3.852 and 3.955 and 3.967 and 4.129 and 4.013 and 4.0726 and 3.918
same,TR-FRET signal at compound concentration,CDK12–cyclin K and DDB1 [1]; compound concentration 244.8 nM,4.223 and 4.06 and 4.046 and 4.132 and 4.096 and 3.922 and 3.897 and 4.118
same,"TR-FRET signal, individual replicate",CDK12–cyclin K and DDB1 [1]; [3],4.301 and 4.232 and 4.095 and 4.244 and 4.268 and 3.98 and 3.937 and 4.179
same,TR-FRET signal at compound concentration 993.601 nM,"CDK12–cyclin K and DDB1 [1]; compound concentration 993.601 nM, raw replicate titration data",4.301 and 4.232 and 4.095 and 4.244 and 4.268 and 3.98 and 3.937 and 4.179 and 4.188 and 3.896 and 3.831 and 3.928 and 4.083 and 4.021 and 4.231 and 4.144 and 3.981
same,TR-FRET signal at compound concentration 993.601 nM,"CDK12–cyclin K and DDB1 [1]; compound concentration 993.601 nM, raw titration data",4.301 and 4.232 and 4.095 and 4.244 and 4.268 and 3.98 and 3.937 and 4.179 and 4.188 and 3.896 and 3.831 and 3.928 and 4.083 and 4.021 and 4.231 and 4.144 and 3.981
same,TR-FRET signal at compound concentration,CDK12–cyclin K and DDB1 [1]; [3],4.301 and 4.232 and 4.095 and 4.244 and 4.268 and 3.98 and 3.937 and 4.179
same,"TR-FRET signal, individual replicate",CDK12–cyclin K and DDB1 [1]; [4],4.322 and 4.194 and 4.162 and 4.144 and 4.309 and 4.034 and 4.299
same,TR-FRET signal at compound concentration 2001.6 nM,"CDK12–cyclin K and DDB1 [1]; compound concentration 2001.6 nM, raw replicate titration data",4.322 and 4.194 and 4.162 and 4.144 and 4.309 and 4.034 and 4.299 and 4.197 and 3.982 and 3.892 and 3.93 and 4.094 and 4.059 and 4.292 and 4.196 and 4.177 and 4.087
same,TR-FRET signal at compound concentration 2001.6 nM,"CDK12–cyclin K and DDB1 [1]; compound concentration 2001.6 nM, raw titration data",4.322 and 4.194 and 4.162 and 4.144 and 4.309 and 4.034 and 4.299 and 4.197 and 3.982 and 3.892 and 3.93 and 4.094 and 4.059 and 4.292 and 4.196 and 4.177 and 4.087
same,TR-FRET signal at compound concentration,CDK12–cyclin K and DDB1 [1]; [4],4.322 and 4.194 and 4.162 and 4.144 and 4.309 and 4.034 and 4.299
same,TR-FRET signal,"CDK12–cyclin K and DDB1 [2]; 10 nM CDK12-cyclin K, compound 0.468 nM",0.1037
same,TR-FRET signal,"CDK12–cyclin K and DDB1 [2]; 10 nM CDK12-cyclin K, compound 2.16 nM",0.135
same,TR-FRET signal,"CDK12–cyclin K and DDB1 [2]; 10 nM CDK12-cyclin K, compound 3.6 nM",0.1982
same,TR-FRET signal,"CDK12–cyclin K and DDB1 [2]; 10 nM CDK12-cyclin K, compound 7.92 nM",0.284
same,TR-FRET signal,"CDK12–cyclin K and DDB1 [2]; 10 nM CDK12-cyclin K, compound 15.84 nM",0.3713
same,TR-FRET signal,"CDK12–cyclin K and DDB1 [2]; 10 nM CDK12-cyclin K, compound 30.96 nM",0.4536
same,TR-FRET signal,"CDK12–cyclin K and DDB1 [2]; 10 nM CDK12-cyclin K, compound 62.6399 nM",0.4778
same,TR-FRET signal,"CDK12–cyclin K and DDB1 [2]; 10 nM CDK12-cyclin K, compound 125.279 nM",0.4982
same,TR-FRET signal,"CDK12–cyclin K and DDB1 [2]; 10 nM CDK12-cyclin K, compound 244.8 nM",0.5242
same,TR-FRET signal,"CDK12–cyclin K and DDB1 [2]; 10 nM CDK12-cyclin K, compound 993.6 nM",0.5359
same,TR-FRET signal,"CDK12–cyclin K and DDB1 [2]; 10 nM CDK12-cyclin K, compound 2001.6 nM",0.5508
same,TR-FRET signal,"CDK12–cyclin K and DDB1 [2]; 50 nM CDK12-cyclin K, compound 0.468 nM",0.2224
same,TR-FRET signal,"CDK12–cyclin K and DDB1 [2]; 50 nM CDK12-cyclin K, compound 2.16 nM",0.2548
same,TR-FRET signal,"CDK12–cyclin K and DDB1 [2]; 50 nM CDK12-cyclin K, compound 3.6 nM",0.3253
same,TR-FRET signal,"CDK12–cyclin K and DDB1 [2]; 50 nM CDK12-cyclin K, compound 7.92 nM",0.4723
same,TR-FRET signal,"CDK12–cyclin K and DDB1 [2]; 50 nM CDK12-cyclin K, compound 15.84 nM",0.7533
same,TR-FRET signal,"CDK12–cyclin K and DDB1 [2]; 50 nM CDK12-cyclin K, compound 30.96 nM",1.3518
same,TR-FRET signal,"CDK12–cyclin K and DDB1 [2]; 50 nM CDK12-cyclin K, compound 62.6399 nM",2.31
same,TR-FRET signal,"CDK12–cyclin K and DDB1 [2]; 50 nM CDK12-cyclin K, compound 125.279 nM",2.851
same,TR-FRET signal,"CDK12–cyclin K and DDB1 [2]; 50 nM CDK12-cyclin K, compound 244.8 nM",2.999
same,TR-FRET signal,"CDK12–cyclin K and DDB1 [2]; 50 nM CDK12-cyclin K, compound 993.6 nM",3.086
same,TR-FRET signal,"CDK12–cyclin K and DDB1 [2]; 50 nM CDK12-cyclin K, compound 2001.6 nM",3.013

# Reference: publication PMC10746543, “Design principles for cyclin K molecular glue degraders” (Nature Chemical Biology, 2023)
